Laboratory results as given in US20230122344A1, “ANTAGONISTS OF THE MUSCARINIC ACETYLCHOLINE RECEPTOR M4” (Vanderbilt University, priority 2019, published 2023).

Biological target: T1, Human M4 (Homo sapiens, UniProt P08173)
T1 construct: expressed in transfected cells; host or cells: CHO-K1 (ATCC), co-transfected with chimeric G protein Gqi5
T1 sequence (P08173 1-479): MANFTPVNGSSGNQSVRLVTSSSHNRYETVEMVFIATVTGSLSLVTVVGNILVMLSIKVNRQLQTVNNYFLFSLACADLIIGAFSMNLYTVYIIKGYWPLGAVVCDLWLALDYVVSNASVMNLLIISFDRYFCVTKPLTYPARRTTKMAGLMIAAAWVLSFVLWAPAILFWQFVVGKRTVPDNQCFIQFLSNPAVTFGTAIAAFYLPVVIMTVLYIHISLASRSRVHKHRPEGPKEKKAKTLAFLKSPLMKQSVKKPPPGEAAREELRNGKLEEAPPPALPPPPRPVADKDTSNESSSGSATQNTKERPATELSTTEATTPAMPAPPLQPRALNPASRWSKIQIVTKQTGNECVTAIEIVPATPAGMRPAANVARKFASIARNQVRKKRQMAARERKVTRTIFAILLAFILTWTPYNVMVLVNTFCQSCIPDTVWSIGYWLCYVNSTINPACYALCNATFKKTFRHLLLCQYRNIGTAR
Experiment: mAChR M4 cell-based functional assay (calcium flux, antagonism of EC80 acetylcholine response)
Conditions: M4/Gqi5/CHO-K1 cells; for remaining activity at 30 µM: CHO-K1, % ACh maximum at 30 μM, read-out: Human M4 Emin; for IC50: decrease of response elicited by EC80 acetylcholine
Method: Human or rat M4 cDNA, along with the chimeric G protein Gqi5, were transfected into Chinese hamster ovary (CHO-K1) cells purchased from the American Type Culture Collection using Lipofectamine2000. M4/Gqi5/CHO cells were grown in Ham's F-12 medium containing 10% heat-inactivated fetal bovine serum (FBS), 20 mM HEPES, 500 μg/mL G418 sulfate, and 200 μg/mL Hygromycin B.
For high throughput measurement of agonist-evoked increases in intracellular calcium, CHO-K1 cells stably expressing muscarinic receptors were plated in growth medium lacking G418 and hygromycin at 15,000 cells/20 μL/well in Greiner 384-well black-walled, tissue culture (TC)-treated, clear-bottom plates (VWR). Cells were incubated overnight at 37° C. and 5% CO2. The next day, cells were washed using an ELX 405 (BioTek) with assay buffer; the final volume was then aspirated to 20 μL. Next, 20 μL of a 2.3 μM stock of Fluo-4/acetoxymethyl ester (Invitrogen, Carlsbad, Calif.), prepared as a 2.3 mM stock in DMSO and mixed in a 1:1 ratio with 10% (w/v) Pluronic F-127 and diluted in assay buffer, was added to the wells and the cell plates were incubated for 50 min at 37° C. and 5% CO2. Dye was removed by washing with the ELX 405 and the final volume was aspirated to 20 μL. Compound master plates were formatted in a 10 point concentration-response curve (CRC) format (1:3 dilutions) in 100% DMSO with a starting concentration of 10 or 1 mM using a BRAVO liquid handler (Agilent). Test compound CRCs were then transferred to daughter plates (240 nL) using the Echo acoustic plate reformatter (Labcyte, Sunnyvale, Calif.) and then diluted into assay buffer (40 μL) to a 2× stock using a Thermo Fisher Combi (Thermo Fisher Scientific, Waltham, Mass.).
Calcium flux was measured using the Functional Drug Screening System (FDSS) 6000 or 7000 (Hamamatsu Corporation, Tokyo, Japan) as an increase in the fluorescent static ratio. Compounds were applied to cells (20 μL, 2×) using the automated system of the FDSS at 2 seconds into the protocol and the data were collected at 1 Hz. At 143 s, 10 μL of an EC20 concentration of the muscarinic receptor agonist acetylcholine was added (5×), followed by the addition of 12 μL of an EC80 concentration of acetylcholine at the 268 s time point (5×). Agonist activity was analyzed as a concentration-dependent increase in calcium mobilization upon compound addition. Positive allosteric modulator activity was analyzed as a concentration-dependent increase in the EC20 acetylcholine response. Antagonist activity was analyzed as a concentration-dependent decrease in the EC80 acetylcholine response; for the purposes of the tables herein, an IC50 (inhibitory concentration 50) was calculated as a concentration-dependent decrease of the response elicited by an EC80 concentration of acetylcholine. Concentration-response curves were generated using a four-parameter logistical equation in XLFit curve fitting software (IDBS, Bridgewater, N.J.) for Excel (Microsoft, Redmond, Wash.) or Prism (GraphPad Software, Inc., San Diego, Calif.) or the Dotmatics software platform (Dotmatics, Bishop's Stortford, UK).
Compounds were synthesized as described above. Activity (IC50 and Emin) was determined in the mAChR M4 cell-based functional assay as described above and the data are shown in Table 2.

| remaining activity at 30 µM | IC50 | Compound |
| --- | --- | --- |
| 3% | 6.4 nM | [2H]C([2H])(C1CCOCC1)N1C[C@H]2C[C@H](Nc3nnc(-c4cc(F)cc(F)c4F)cc3C3CC3(F)F)C[C@H]2C1 (stereo partly drawn) [compound 33, (3aR,5s,6aS)-N-(4-(2,2-difluorocyclopropyl)-6-(2,3,5-trifluorophenyl)pyridazin-3-yl)-2-((tetrahydro-2H-pyran-4-yl)methyl-d2)octahydrocyclopenta[c]pyrrol-5-amine] |
| 2% | 5.05 nM | [2H]C([2H])(C1CCOCC1)N1C[C@H]2C[C@H](Nc3nnc(-c4cc(F)cc(F)c4F)cc3C3CC3)C[C@H]2C1 [compound 34, (3aR,5s,6aS)-N-(4-cyclopropyl-6-(2,3,5-trifluorophenyl)pyridazin-3-yl)-2-((tetrahydro-2H-pyran-4-yl)methyl-d2)octahydrocyclopenta[c]pyrrol-5-amine] |
| 4% | 1030 nM | [2H]C([2H])(C1CCOCC1)N1C[C@H]2C[C@H](Nc3nnc(-c4cc(F)cc(F)c4F)cc3C(C)(C)C)C[C@H]2C1 [compound 36, (3aR,5s,6aS)-N-(4-(tert-butyl)-6-(2,3,5-trifluorophenyl)pyridazin-3-yl)-2-((tetrahydro-2H-pyran-4-yl)methyl-d2)octahydrocyclopenta[c]pyrrol-5-amine] |
| 3% | 0.69 nM | [2H]C([2H])(C1CCOCC1)N1C[C@H]2C[C@H](Nc3cc(C)c(-c4cc(F)cc(F)c4F)nn3)C[C@H]2C1 [compound 37, (3aR,5s,6aS)-N-(5-methyl-6-(2,3,5-trifluorophenyl)pyridazin-3-yl)-2-((tetrahydro-2H-pyran-4-yl)methyl-d2)octahydrocyclopenta[c]pyrrol-5-amine] |
| 3% | 17.9 nM | [2H]C([2H])(C1CCOCC1)N1C[C@H]2C[C@H](Nc3cc(C4(C(F)(F)F)CC4)c(-c4cc(F)cc(F)c4F)nn3)C[C@H]2C1 [compound 39, (3aR,5s,6aS)-2-((tetrahydro-2H-pyran-4-yl)methyl-d2)-N-(5-(1-(trifluoromethyl)cyclopropyl)-6-(2,3,5-trifluorophenyl)pyridazin-3-yl)octahydrocyclopenta[c]pyrrol-5-amine] |
| 3% | 1.37 nM | [2H]C([2H])(C1CCOCC1)N1C[C@H]2C[C@H](Nc3cc(C(F)F)c(-c4cc(F)cc(F)c4F)nn3)C[C@H]2C1 [compound 40, (3aR,5s,6aS)-N-(5-(difluoromethyl)-6-(2,3,5-trifluorophenyl)pyridazin-3-yl)-2-((tetrahydro-2H-pyran-4-yl)methyl-d2)octahydrocyclopenta[c]pyrrol-5-amine] |
| 3% | 54.4 nM | [2H]C([2H])(C1CCOCC1)N1C[C@H]2C[C@H](Nc3nnc(-c4cc(F)cc(F)c4F)cc3C(C)(F)F)C[C@H]2C1 [compound 45, (3aR,5s,6aS)-N-(4-(1,1-difluoroethyl)-6-(2,3,5-trifluorophenyl)pyridazin-3-yl)-2-((tetrahydro-2H-pyran-4-yl)methyl-d2)octahydrocyclopenta[c]pyrrol-5-amine] |

Continued, compound first:

| Compound | remaining activity at 30 µM | IC50 |
| --- | --- | --- |
| [2H]C([2H])(C1CCOCC1)N1C[C@H]2C[C@H](Nc3cc(C(F)F)c(-c4cc(F)ccc4C)nn3)C[C@H]2C1 [compound 32, (3aR,5s,6aS)-N-(5-(difluoromethyl)-6-(5-fluoro-2-methylphenyl)pyridazin-3-yl)-2-((tetrahydro-2H-pyran-4-yl)methyl-d2)octahydrocyclopenta[c]pyrrol-5-amine] | 3% | 2.76 nM |
| Cc1cc(N[C@H]2C[C@@H]3CN(CC4CCOCC4)C[C@@H]3C2)nnc1-c1cc(F)cc(F)c1F [compound 35, (3aR,5s,6aS)-N-(5-methyl-6-(2,3,5-trifluorophenyl)pyridazin-3-yl)-2-((tetrahydro-2H-pyran-4-yl)methyl)octahydrocyclopenta[c]pyrrol-5-amine] | 3% | 0.5 nM |
| [2H]C([2H])(C1CCOCC1)N1C[C@H]2C[C@H](Nc3cc(C4(C(F)(F)F)CC4)c(-c4cc(F)c(F)cc4F)nn3)C[C@H]2C1 [compound 38, (3aR,5s,6aS)-2-((tetrahydro-2H-pyran-4-yl)methyl-d2)-N-(5-(1-(trifluoromethyl)cyclopropyl)-6-(2,4,5-trifluorophenyl)pyridazin-3-yl)octahydrocyclopenta[c]pyrrol-5-amine] | 3% | 46.3 nM |
| Fc1cc(F)c(F)c(-c2nnc(N[C@H]3C[C@@H]4CN(CC5CCOCC5)C[C@@H]4C3)cc2C(F)F)c1 [compound 41, (3aR,5s,6aS)-N-(5-(difluoromethyl)-6-(2,3,5-trifluorophenyl)pyridazin-3-yl)-2-((tetrahydro-2H-pyran-4-yl)methyl)octahydrocyclopenta[c]pyrrol-5-amine] | 3% | 0.33 nM |
| COc1ccc(F)cc1-c1nnc(N[C@H]2C[C@@H]3CN(CC4CCOCC4)C[C@@H]3C2)cc1C(F)F [compound 42, (3aR,5s,6aS)-N-(5-(difluoromethyl)-6-(5-fluoro-2-methoxyphenyl)pyridazin-3-yl)-2-((tetrahydro-2H-pyran-4-yl)methyl)octahydrocyclopenta[c]pyrrol-5-amine] | 2% | 0.67 nM |
| Cc1ccc(F)cc1-c1nnc(N[C@H]2C[C@@H]3CN(CC4CCOCC4)C[C@@H]3C2)cc1C(F)F [compound 43, (3aR,5s,6aS)-N-(5-(difluoromethyl)-6-(5-fluoro-2-methylphenyl)pyridazin-3-yl)-2-((tetrahydro-2H-pyran-4-yl)methyl)octahydrocyclopenta[c]pyrrol-5-amine] | 2% | 0.57 nM |
| Fc1ccc(Cl)c(-c2nnc(N[C@H]3C[C@@H]4CN(CC5CCOCC5)C[C@@H]4C3)cc2C(F)F)c1 [compound 44, (3aR,5s,6aS)-N-(6-(2-chloro-5-fluorophenyl)-5-(difluoromethyl)pyridazin-3-yl)-2-((tetrahydro-2H-pyran-4-yl)methyl)octahydrocyclopenta[c]pyrrol-5-amine] | 2% | 0.65 nM |
| CC(c1ccccn1)N1C[C@H]2C[C@H](Nc3cc(C(F)F)c(-c4cc(F)cc(F)c4F)nn3)C[C@H]2C1 (stereo partly drawn) [compound 50, (3aR,5s,6aS)-N-(5-(difluoromethyl)-6-(2,3,5-trifluorophenyl)pyridazin-3-yl)-2-(1-(pyridin-2-yl)ethyl)octahydrocyclopenta[c]pyrrol-5-amine] | 2% | 34.8 nM |
| [2H]C(C)(c1ccccn1)N1C[C@H]2C[C@H](Nc3cc(C(F)F)c(-c4cc(F)cc(F)c4F)nn3)C[C@H]2C1 (stereo partly drawn) [compound 51, (3aR,5s,6aS)-N-(5-(difluoromethyl)-6-(2,3,5-trifluorophenyl)pyridazin-3-yl)-2-(1-(pyridin-2-yl)ethyl-1-d)octahydrocyclopenta[c]pyrrol-5-amine] | 2% | 35 nM |
